Assay results as given in US20250295636A1, “METHOD FOR PREPARING 4-[5-[BIS(2-CHLOROETHYL)AMINO]-1-METHYL-1H-BENZO[D]IMIDAZOL-2-YL]BUTYRIC ACID ALKYL ESTERS AND FORMYLATED DERIVATIVES” (HERAEUS PRECIOUS METALS GMBH & CO. KG, priority 2022, published 2025).

What was measured:
Format in all cases: cell-based
[1] = system: A375; test: MTS cell proliferation assay, A375 (skin); conditions: Homo sapiens, A-375, 72 hours at 37° C., 490 nm
Procedure: (§1) Selected cell lines were incubated for 72 hours at 37° C. with different concentrations of 4-[5-[bis(2-chloroethyl)amino]-4-formyl-1-methyl-1H-benzo[d]imidazol-2-yl]butyric acid (concentrations ranging from 1.5 μmol to 5 mmol per liter). The cells were then incubated with MTS solution (Promega) for 1 hour, and the effects of 4-[5-[bis(2-chloroethyl)amino]-4-formyl-1-methyl-1H-benzo[d]imidazol-2-yl]butyric acid on cell proliferation were determined colorimetrically at 490 nm. Cell growth was expressed as a percentage of the corresponding control (0.5 wt. % dimethyl sulfoxide in water).

[2] = system: Caki-1; test: MTS cell proliferation assay, Caki-1 (kidneys); conditions: Homo sapiens, 72 hours at 37° C., 490 nm
Procedure: as §1

[3] = system: Calu-6; test: MTS cell proliferation assay, Calu-6 (lung); conditions: Homo sapiens, 72 hours at 37° C., 490 nm
Procedure: as §1

[4] = system: U87MG; test: MTS cell proliferation assay, U87MG (brain); conditions: Homo sapiens, U-87 MG, 72 hours at 37° C., 490 nm
Procedure: as §1

[5] = system: BxPC-3; test: MTS cell proliferation assay, BxPC-3 (pancreas); conditions: Homo sapiens, 72 hours at 37° C., 490 nm
Procedure: as §1

[6] = system: skin cancer, kidney cancer, lung cancer, brain tumors and pancreatic cancer; test: cancer-cell-killing or cancer-cell-growth-inhibiting effect (summary of example 3); conditions: summary statement; compound and its pharmaceutically acceptable salts; concentration at which 50% of the cancer cells are killed
Procedure: IC50 stands for “inhibition concentration,” at which 50% of the cancer cells are killed.
as §1

Cn1c(CCCC(=O)O)nc2c(C=O)c(N(CCCl)CCCl)ccc21 [4-[5-[bis(2-chloroethyl)amino]-4-formyl-1-methyl-1H-benzo[d]imidazol-2-yl]butyric acid]
IC50 [1]: 1300 µM
IC50 [2]: 1600 µM
IC50 [3]: 1300 µM
IC50 [4]: 2900 µM
IC50 [5]: 740 µM
low IC50 concentration range [6]: one hundred
